Series [1] relates to SMN2 minigene mRNA (SMN2-A minigene) in HEK293H cells. Description: SMN2 minigene mRNA splicing RT-qPCR assay in cultured cells. The format is cell-based, human. As to conditions: Homo sapiens, HEK293-H; concentration increasing full length SMN2 mRNA 1.5-fold relative to vehicle-treated cells; HEK293H cells with SMN2-A minigene, 24 hours, 7-point concentration data; read-out: EC1.5x for production of full length SMN2 mRNA. In short, it runs like this:
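EC1.5× values derive from a 24 h treatment of SMN2-A minigene HEK293H cells and GAPDH-normalized RT-qPCR of exon 7-included minigene mRNA relative to vehicle-treated cells.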

Series [2] has as its system Smn protein in SMA patient fibroblast cells (GM03813). As to the kind of experiment: Smn protein assay in cultured cells (SMN HTRF). The format is cell-based, human. The following applies: SMA patient fibroblast cells, 48 hours; for maximum fold (Fold) increase of Smn protein: 7-point concentration data, fold relative to vehicle control; for EC1.5x for Smn protein expression: 7-point concentration curve, SMN HTRF, concentration producing 1.5 times Smn protein vs DMSO vehicle control. Summed up: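 Cells were cultured 72 h, seeded at 5,000/well and dosed with seven concentrations (3.16-fold apart) for 48 h. HTRF on lysates, read at 665 and 620 nm, gave blank-corrected ΔF values relative to DMSO. Potency is reported as EC1.5×, efficacy as maximal fold Smn increase.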
(TR-FRET usually uses a lanthanide donor and a delayed reading to cut background.)

Regarding `O=c1cc(-c2ccc(OCC(F)(F)F)c(F)c2)nc2ccc(N3CCNCC3)cn12` [Compound 154, 2-[3-fluoro-4-(2,2,2-trifluoroethoxy)phenyl]-7-(piperazin-1-yl)-4H-pyrido[1,2-a]pyrimidin-4-one], the melting point (as a rule, the temperature of the solid-liquid transition) was in the range of 198 to 201 °C. Moreover, the EC (1.5-fold increase) in series [1] fell in the range of 1 to 3 µM. Also, the “maximum fold (Fold) increase of Smn protein” value (shortened to “maximum fold (Fold) increase”) in series [2] is “* (A maximum fold increase of ≤1.2 is indicated by one star (*))”.
On to `CCc1nc(C)cn2nc(-c3cc(=O)n4cc(N5CCN(CCO)[C@H](C)C5)ccc4n3)cc12` [Compound 632, 2-(4-ethyl-6-methylpyrazolo[1,5-a]pyrazin-2-yl)-7-[(3R)-4-(2-hydroxyethyl)-3-methylpiperazin-1-yl]-4H-pyrido[1,2-a]pyrimidin-4-one], for which the melting point was 238 to 241 °C. In addition, the EC (1.5-fold increase) in series [1] is less than 0.1 µM. In addition, in series [2], the “EC1.5x for Smn protein expression” value is “**** (an EC1.5x≤0.3 μM is indicated by four stars (****))” and the “maximum fold (Fold) increase” value is on record as “***** (a fold increase >1.65 is indicated by five stars (*****))”.
Turning to `COc1ccc(-c2cc(=O)n3cc(N4CCNCC4)cc(OC)c3n2)cc1OC` [Cpd 70, 2-(3,4-dimethoxyphenyl)-9-methoxy-7-(piperazin-1-yl)-4H-pyrido[1,2-a]pyrimidin-4-one], the melting point fell in the range of 185 to 187 °C. Further, the EC (1.5-fold increase) in series [1] lay within 1 to 3 µM. For the same molecule, the “maximum fold (Fold) increase” value in series [2] is listed as “* (A maximum fold increase of ≤1.2 is indicated by one star (*))”.
Take `Cc1nc2c(F)cc(-c3cc(=O)n4cc(N5CCN(C)[C@@H](C)C5)ccc4n3)cc2o1` [Compound 307, 7-[(3S)-3,4-dimethylpiperazin-1-yl]-2-(4-fluoro-2-methyl-1,3-benzoxazol-6-yl)-4H-pyrido[1,2-a]pyrimidin-4-one]: the melting point is 194 to 196 °C. The EC (1.5-fold increase) in series [1] was less than 0.1 µM. In series [2], the “EC1.5x for Smn protein expression” value is listed as “**** (an EC1.5x≤0.3 μM is indicated by four stars (****))”; the “maximum fold (Fold) increase” value is “**** (a fold increase between >1.5 and ≤1.65 is indicated by four stars (****))”.
Molecule `C[C@H]1CN(c2ccc3nc(-c4ccc5c(c4)OCCO5)cc(=O)n3c2)CCN1` [Compound 32, 2-(2,3-dihydro-1,4-benzodioxin-6-yl)-7-[(3S)-3-methylpiperazin-1-yl]-4H-pyrido[1,2-a]pyrimidin-4-one] returned a melting point of 205 to 207 °C. The EC (1.5-fold increase) in series [1] fell in the range of 1 to 3 µM. Further, the “maximum fold (Fold) increase” value in series [2] is reported as “* (A maximum fold increase of ≤1.2 is indicated by one star (*))”.
Consider `O=c1cc(-c2ccc3c(c2)OCO3)nc2ccc(N3CCNCC3)cn12` [Compound 18, 2-(1,3-benzodioxol-5-yl)-7-(piperazin-1-yl)-4H-pyrido[1,2-a]pyrimidin-4-one], for which the melting point fell in the range of 198 to 201 °C. Besides, in series [1], the EC (1.5-fold increase) is 0.3 to 1 µM. In addition, in series [2], the “EC1.5x for Smn protein expression” value was “** (an EC1.5× between >1 μM and ≤3 μM is indicated by two stars (**))”; the “maximum fold (Fold) increase” value was “**** (a fold increase between >1.5 and ≤1.65 is indicated by four stars (****))”.
For the molecule `CCOc1cc(-c2cc(=O)n3cc(N4CCNCC4)ccc3n2)ccc1OC` [Compound 112, 2-(3-ethoxy-4-methoxyphenyl)-7-(piperazin-1-yl)-4H-pyrido[1,2-a]pyrimidin-4-one], the melting point lay within 194 to 196 °C. Also, in series [1], the EC (1.5-fold increase) lay in the range of 0.3 to 1 µM. Besides, in series [2], the “maximum fold (Fold) increase” value was “*** (a fold increase between >1.35 and ≤1.5 is indicated by three stars (***))”.
As to `Cc1cn2cc(-c3cc(=O)n4cc(N5C[C@@H](C)N[C@@H](C)C5)ccc4n3)cc(F)c2n1` [Compound 210, 7-[(3R,5S)-3,5-dimethylpiperazin-1-yl]-2-(8-fluoro-2-methylimidazo[1,2-a]pyridin-6-yl)-4H-pyrido[1,2-a]pyrimidin-4-one], the melting point is 255 to 259 °C. Besides, in series [1], the EC (1.5-fold increase) is less than 0.1 µM. Moreover, in series [2], the “EC1.5x for Smn protein expression” value is “**** (an EC1.5x≤0.3 μM is indicated by four stars (****))”; the “maximum fold (Fold) increase” value was “**** (a fold increase between >1.5 and ≤1.65 is indicated by four stars (****))”.
`Cc1nc2c(F)cc(-c3cc(=O)n4cc(N5CCN[C@@H](C)C5)ccc4n3)cc2o1` [Cpd 306, 2-(4-fluoro-2-methyl-1,3-benzoxazol-6-yl)-7-[(3S)-3-methylpiperazin-1-yl]-4H-pyrido[1,2-a]pyrimidin-4-one] displayed a melting point of 207 to 209 °C. The EC (1.5-fold increase) in series [1] was less than 0.1 µM. Further, in series [2], the “EC1.5x for Smn protein expression” value was “**** (an EC1.5x≤0.3 μM is indicated by four stars (****))” and the “maximum fold (Fold) increase” value is reported as “***** (a fold increase >1.65 is indicated by five stars (*****))”.
`CCN(CC)C1CN(c2ccc3nc(-c4cc5c(C)nc(C)cn5n4)cc(=O)n3c2)C1` [Compound 758, 7-[3-(diethylamino)azetidin-1-yl]-2-(4,6-dimethylpyrazolo[1,5-a]pyrazin-2-yl)-4H-pyrido[1,2-a]pyrimidin-4-one] came in with a melting point of 231 to 233 °C. The EC (1.5-fold increase) in series [1] is 0.3 to 1 µM. Also, the “maximum fold (Fold) increase” value in series [2] was “*** (a fold increase between >1.35 and ≤1.5 is indicated by three stars (***))”.
Molecule `Cc1cn2nc(-c3cc(=O)n4cc(N5CCN(CCO)CC5)ccc4n3)cc2c(C)n1` [Compound 531, 2-(4,6-dimethylpyrazolo[1,5-a]pyrazin-2-yl)-7-[4-(2-hydroxyethyl)piperazin-1-yl]-4H-pyrido[1,2-a]pyrimidin-4-one] returned a melting point of 246 to 248 °C. Besides, the EC (1.5-fold increase) in series [1] lay in the range of 0.1 to 0.3 µM. In series [2], the “EC1.5x for Smn protein expression” value was “*** (an EC1.5× between >0.3 μM and ≤1 μM is indicated by three stars (***))”; the “maximum fold (Fold) increase” value was “***** (a fold increase >1.65 is indicated by five stars (*****))”.
`CCc1nc(C)cn2nc(-c3cc(=O)n4cc(N5CCN(C)[C@@H](C)C5)cc(C)c4n3)cc12` [Compound 789, 7-[(3S)-3,4-dimethylpiperazin-1-yl]-2-(4-ethyl-6-methylpyrazolo[1,5-a]pyrazin-2-yl)-9-methyl-4H-pyrido[1,2-a]pyrimidin-4-one] displayed a melting point of 235 to 241 °C. Besides, the EC (1.5-fold increase) in series [1] was less than 0.1 µM. In series [2], the “EC1.5x for Smn protein expression” value was “**** (an EC1.5x≤0.3 μM is indicated by four stars (****))” and the “maximum fold (Fold) increase” value is on record as “***** (a fold increase >1.65 is indicated by five stars (*****))”.
`COc1ccc(-c2cc(=O)n3cc(N4CC[C@H](N(C)C)C4)ccc3n2)cc1F` [Compound 205, 7-[(3S)-3-(dimethylamino)pyrrolidin-1-yl]-2-(3-fluoro-4-methoxyphenyl)-4H-pyrido[1,2-a]pyrimidin-4-one] came in with a melting point of 187 to 192 °C. In addition, the EC (1.5-fold increase) in series [1] was in the range of 0.3 to 1 µM. Besides, the “maximum fold (Fold) increase” value in series [2] is “** (a fold increase between >1.2 and ≤1.35 is indicated by two stars (**))”.
As to `Cc1nc2ccc(-c3cc(=O)n4nc(C5CCN(CCO)CC5)ccc4n3)cc2o1` [Compound 598, 7-[1-(2-hydroxyethyl)piperidin-4-yl]-2-(2-methyl-1,3-benzoxazol-6-yl)-4H-pyrimido[1,2-b]pyridazin-4-one], the melting point lay within 205 to 207 °C. Further, the EC (1.5-fold increase) in series [1] is 0.1 to 0.3 µM. In addition, in series [2], the “EC1.5x for Smn protein expression” value is “*** (an EC1.5× between >0.3 μM and ≤1 μM is indicated by three stars (***))”; the “maximum fold (Fold) increase” value is listed as “***** (a fold increase >1.65 is indicated by five stars (*****))”.
Take `Cc1cc(-c2cc(=O)n3cc(N4CCNCC4)ccc3n2)cc2cnn(C)c12` [Compound 776, 2-(1,7-dimethyl-1H-indazol-5-yl)-7-(piperazin-1-yl)-4H-pyrido[1,2-a]pyrimidin-4-one]: the melting point fell in the range of 160 to 163 °C. In addition, the EC (1.5-fold increase) in series [1] was in the range of 1 to 3 µM. Also, the “maximum fold (Fold) increase” value in series [2] is “** (a fold increase between >1.2 and ≤1.35 is indicated by two stars (**))”.
For the molecule `COc1ncc(-c2cc(=O)n3cc(N4C[C@@H](C)N[C@@H](C)C4)ccc3n2)cc1F` [Compound 174, 7-[(3R,5S)-3,5-dimethylpiperazin-1-yl]-2-(5-fluoro-6-methoxypyridin-3-yl)-4H-pyrido[1,2-a]pyrimidin-4-one], the melting point fell in the range of 160 to 165 °C. Further, the EC (1.5-fold increase) in series [1] lay in the range of 1 to 3 µM. Besides, the “maximum fold (Fold) increase” value in series [2] was “** (a fold increase between >1.2 and ≤1.35 is indicated by two stars (**))”.
As for `Cc1nc2cc(-c3cc(=O)n4cc(N5CCN6CCC[C@H]6C5)ccc4n3)ccc2s1` [Compound 178, 7-[(8aS)-hexahydropyrrolo[1,2-a]pyrazin-2(1H)-yl]-2-(2-methyl-1,3-benzothiazol-5-yl)-4H-pyrido[1,2-a]pyrimidin-4-one], the melting point fell in the range of 254 to 256 °C. The EC (1.5-fold increase) in series [1] was 0.3 to 1 µM. Also, the “maximum fold (Fold) increase” value in series [2] is “** (a fold increase between >1.2 and ≤1.35 is indicated by two stars (**))”.
The molecule `COc1ccc(-c2cc(=O)n3cc(N4CCNCC4)ccc3c2)cc1OC` [Cpd 106, 2-(3,4-dimethoxyphenyl)-7-(piperazin-1-yl)-4H-quinolizin-4-one] gave a melting point of 170 to 172 °C. The EC (1.5-fold increase) in series [1] was 0.3 to 1 µM. In series [2], the “EC1.5x for Smn protein expression” value was “** (an EC1.5× between >1 μM and ≤3 μM is indicated by two stars (**))”; the “maximum fold (Fold) increase” value was “**** (a fold increase between >1.5 and ≤1.65 is indicated by four stars (****))”.

For the origin of these results see US11753407B2, “Compounds for treating spinal muscular atrophy” (PTC Therapeutics, Inc., priority 2012, dated 2023).
